{"source": "paper PMC5723147", "about": "“Effective Antimicrobial Activity of Plectasin-Derived Antimicrobial Peptides against Staphylococcus aureus Infection in Mammary Glands” (Frontiers in Microbiology, 2017)", "key": {"[1]": {"tested_on": "Staphylococcus aureus E48", "test": "Minimum inhibitory concentration (broth microdilution, Mueller-Hinton broth)", "format": "cell-based", "conditions": "5 × 10^5 CFU/mL, 37°C, 16-20 h, three replicates, read-out: MIC against S. aureus E48", "procedure": "Staphylococcus aureus E48, a clinical mastitis isolate, had been used to induce mouse mastitis model ([Wang et al., 2017]). […] It was used as a positive control in this study and was purchased from Sigma–Aldrich. The AMPs were prepared according to a previously described protocol ([Zhang et al., 2015]). The minimum inhibitory concentrations (MICs) were used to evaluate the antibacterial activities of antimicrobial agents ([Wiegand et al., 2008]). Briefly, S. aureus were grown to the log-phase at 37°C in the Mueller–Hinton broth, and diluted to 5 × 10^5 CFU/mL with the fresh medium. A total of 180 μL of cell suspension and 20 μL of serially twofold diluted peptide were added to each well, and the plates were incubated at 37°C for 16–20 h. The final concentration of antimicrobial agents was prepared with gradients of 64, 32, 16, 8, 4, 2, 1, 0.5, 0.25, 0.125, and 0.0625 μg/mL. Three replicates were examined for each concentration. The MICs refer to the lowest concentration where no growth was visible after 16–20 h of incubation."}, "[2]": {"tested_on": "S. aureus E48 in mammary glands", "test": "Mouse model of S. aureus-induced mastitis", "format": "in vivo, BALB/c mice", "procedure": "The animal protocols used in this work were approved by Institutional Animal Care and Use Committee of Northwest A&F University. The 6- to 8-week-old specific-pathogen-free BALB/c mice were purchased from the Experimental Animal Center of the Medical College of Xi’an Jiao Tong University. […] The lactating mice were challenged with S. aureus E48 as described earlier ([Schmelcher et al., 2015]). The pentobarbital sodium (1.4 mg/20 g bodyweight) was used for anesthesia of the lactating mice by intraperitoneal injection. The distal end of the teat L4 (on the left) and R4 (on the right) was removed (snipped) by a small cut. These L4 and R4 glands constitute the fourth pair found from head to tail. For all groups except for the snipped only group, glands were injected with approximately 10^4 CFU S. aureus in 50 μL PBS. At 45 min after S. aureus inoculation, the challenged glands were injected with 100 μg AMPs in 20 μL or 20 μL of PBS, depending on the treatment. The mice were euthanized 24 h after the S. aureus inoculation, and mammary glands were aseptically collected and weighed. Five mice (10 mammary glands) were used for each group. Seven mammary glands from each treatment were sampled and homogenized in PBS (100 mg/200 μL). Serial dilution plating on Baird-Parker agar plates was done to determine intramammary S. aureus. A part of the homogenate was centrifuged, and the supernatant was used for tumor necrosis factor alpha (TNF-α) and interleukin 6 (IL-6) assays, using the mouse TNF-α and IL-6 ELISA kits (Shanghai Bangyi Biotechnology). The tissue from three mammary glands from each treatment was fixed with 10% buffered formalin for histopathological analyses (HE staining)."}, "[3]": {"conditions": "100 μg intramammary, 24 h post-infection, ELISA, P < 0.05"}}}
{"smiles": "CN(C)[C@@H]1C(O)=C(C(N)=O)C(=O)[C@@]2(O)C(O)=C3C(=O)c4c(O)cccc4[C@@](C)(O)[C@H]3C[C@@H]12", "note": "[tetracycline, Tetracycline]", "values": [{"measurement": "MIC", "setting": "[1]", "result": 1, "unit": "µg/mL"}, {"measurement": "Reduction of S. aureus numbers in mammary glands compared to PBS control", "setting": "[2]; 100 μg intramammary 45 min after ~10^4 CFU inoculation, 24 h after inoculation", "result": 1.48, "unit": "log10 units"}, {"measurement": "S. aureus-induced inflammatory cell infiltration in mammary tissue (HE staining)", "setting": "[2]; 100 μg intramammary, 24 h", "result": "significantly reduced"}, {"measurement": "Intramammary IL-6 concentration in comparison with buffer control", "setting": "[2]; [3]", "result": "significantly reduced"}, {"measurement": "Intramammary TNF-α concentration in comparison with buffer control", "setting": "[2]; [3]", "result": "significantly reduced"}]}
